Test system: 996289-038-R-J1-PDC spheroid viability
Test: Anticancer human tumor 996289-038-R-J1-PDC patient-derived colon adenocarcinoma cell line growth inhibition [PI3K]
Conditions: spheroids with HUVEC and MSC; for IC50: curve of first compound; for viability, T/C: stronger effect = lower value
Procedure, shortened: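 Tumor cells grown as multi-cell spheroids with HUVEC endothelial cells and MSC fibroblast-like stroma were treated with targeted agents combined with inavolisib, alpelisib, duvelisib or copanlisib. Doses fell in half-log steps from near clinical Cmax, else from 10 microM. Viability was measured.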

[1] = second compound 0.0316 µM, first compound 0.0316 µM
[2] = second compound 0.0316 µM, first compound 0.1 µM
[3] = second compound 0.0316 µM, first compound 0.316 µM
[4] = second compound 0.0316 µM, first compound 1 µM
[5] = second compound 0.0316 µM, first compound 3.16 µM
[6] = second compound 0.0316 µM, first compound 10 µM
[7] = second compound 0.1 µM, first compound 0.0316 µM
[8] = second compound 0.1 µM, first compound 0.1 µM
[9] = second compound 0.1 µM, first compound 0.316 µM
[10] = second compound 0.1 µM, first compound 1 µM
[11] = second compound 0.1 µM, first compound 3.16 µM
[12] = second compound 0.1 µM, first compound 10 µM
[13] = second compound 0.316 µM, first compound 0.0316 µM
[14] = second compound 0.316 µM, first compound 0.1 µM
[15] = second compound 0.316 µM, first compound 0.316 µM
[16] = second compound 0.316 µM, first compound 1 µM
[17] = second compound 0.316 µM, first compound 3.16 µM
[18] = second compound 0.316 µM, first compound 10 µM
[19] = second compound 1 µM, first compound 0.0316 µM
[20] = second compound 1 µM, first compound 0.1 µM
[21] = second compound 1 µM, first compound 0.316 µM
[22] = second compound 1 µM, first compound 1 µM
[23] = second compound 1 µM, first compound 3.16 µM
[24] = second compound 1 µM, first compound 10 µM
[25] = second compound 3.16 µM, first compound 0.0316 µM
[26] = second compound 3.16 µM, first compound 0.1 µM
[27] = second compound 3.16 µM, first compound 0.316 µM
[28] = second compound 3.16 µM, first compound 1 µM
[29] = second compound 3.16 µM, first compound 3.16 µM
[30] = second compound 3.16 µM, first compound 10 µM
[31] = second compound 10 µM, first compound 0.0316 µM
[32] = second compound 10 µM, first compound 0.1 µM
[33] = second compound 10 µM, first compound 0.316 µM
[34] = second compound 10 µM, first compound 1 µM
[35] = second compound 10 µM, first compound 3.16 µM
[36] = second compound 10 µM, first compound 10 µM
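Further: spheroids exposed to compounds for seven days before viability read.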
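Wherever viability, T/C is given: luminescence used as a proxy for viable cell amount; percent viability relative to DMSO vehicle control as 100%.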

SMILES: CC1(C)CCC(CN2CCN(c3ccc(C(=O)NS(=O)(=O)c4ccc(NCC5CCOCC5)c([N+](=O)[O-])c4)c(Oc4cnc5[nH]ccc5c4)c3)CC2)=C(c2ccc(Cl)cc2)C1 + CC(Nc1ncnc2nc[nH]c12)c1cc2cccc(Cl)c2c(=O)n1-c1ccccc1
- IC50 (second compound 0.0316 µM): > 10 µM
- IC50 (second compound 0.1 µM): > 10 µM
- IC50 (second compound 0.316 µM): > 10 µM
- IC50 (second compound 1 µM): > 10 µM
- IC50 (second compound 3.16 µM): 9.57 µM
- IC50 (second compound 10 µM): > 10 µM
- viability, T/C [1]: 105%
- viability, T/C [2]: 86.3%
- viability, T/C [3]: 106%
- viability, T/C [4]: 103%
- viability, T/C [5]: 114%
- viability, T/C [6]: 65%
- viability, T/C [7]: 108%
- viability, T/C [8]: 96.9%
- viability, T/C [9]: 99.4%
- viability, T/C [10]: 119%
- viability, T/C [11]: 128%
- viability, T/C [12]: 67%
- viability, T/C [13]: 111%
- viability, T/C [14]: 96.3%
- viability, T/C [15]: 104%
- viability, T/C [16]: 101%
- viability, T/C [17]: 112%
- viability, T/C [18]: 60.9%
- viability, T/C [19]: 102%
- viability, T/C [20]: 88.7%
- viability, T/C [21]: 103%
- viability, T/C [22]: 114%
- viability, T/C [23]: 124%
- viability, T/C [24]: 63.1%
- viability, T/C [25]: 109%
- viability, T/C [26]: 92.3%
- viability, T/C [27]: 102%
- viability, T/C [28]: 107%
- viability, T/C [29]: 112%
- viability, T/C [30]: 47.7%
- viability, T/C [31]: 88.4%
- viability, T/C [32]: 88.9%
- viability, T/C [33]: 85.7%
- viability, T/C [34]: 102%
- viability, T/C [35]: 108%
- viability, T/C [36]: 54.6%

SMILES: CCCS(=O)(=O)Nc1ccc(F)c(C(=O)c2c[nH]c3ncc(-c4ccc(Cl)cc4)cc23)c1F + CC(Nc1ncnc2nc[nH]c12)c1cc2cccc(Cl)c2c(=O)n1-c1ccccc1
- IC50 (second compound 0.0316 µM): 6.51 µM
- IC50 (second compound 0.1 µM): 6.87 µM
- IC50 (second compound 0.316 µM): 6.7 µM
- IC50 (second compound 1 µM): 6.63 µM
- IC50 (second compound 3.16 µM): 6.55 µM
- IC50 (second compound 10 µM): 5.93 µM
- viability, T/C [1]: 99.5%
- viability, T/C [2]: 98.8%
- viability, T/C [3]: 103%
- viability, T/C [4]: 97.1%
- viability, T/C [5]: 98.6%
- viability, T/C [6]: 21.1%
- viability, T/C [7]: 103%
- viability, T/C [8]: 96.8%
- viability, T/C [9]: 119%
- viability, T/C [10]: 107%
- viability, T/C [11]: 111%
- viability, T/C [12]: 22.2%
- viability, T/C [13]: 89.8%
- viability, T/C [14]: 103%
- viability, T/C [15]: 107%
- viability, T/C [16]: 106%
- viability, T/C [17]: 99.7%
- viability, T/C [18]: 23.5%
- viability, T/C [19]: 105%
- viability, T/C [20]: 98.2%
- viability, T/C [21]: 96.9%
- viability, T/C [22]: 89%
- viability, T/C [23]: 102%
- viability, T/C [24]: 23.2%
- viability, T/C [25]: 94.9%
- viability, T/C [26]: 95.4%
- viability, T/C [27]: 93.2%
- viability, T/C [28]: 85.6%
- viability, T/C [29]: 101%
- viability, T/C [30]: 24.2%
- viability, T/C [31]: 87%
- viability, T/C [32]: 87.8%
- viability, T/C [33]: 88.3%
- viability, T/C [34]: 82.5%
- viability, T/C [35]: 99.6%
- viability, T/C [36]: 17.5%

Reference: PubChem BioAssay AID1963965 (Molecular Pharmacology Branch, DTP, NCI, 2024)
